Results taken from patent US20070202079A1, “Therapeutic compositions and methods useful in modulating protein tyrosine phosphatases” (priority 2006, published 2007).

Tests used:
[1] = test system: WM9 cells; assay: WM9 cell growth, MTT; format: cell-based, human
Procedure: For cell proliferation assays, cells were grown in 10% FCS culture medium containing various amounts of IFNs and/or sodium stibogluconate in 96 well plates and cultured at 37° C. for 3 or 6 days as indicated. The numbers of viable cells in proliferation assays were determined by MTT assays as described in Phatak et al., J. Immunol. 167, 3391 (2001).
Renca (Murphy, G. P., and W. J. Hrushesky. 1973. A murine renal cell carcinoma. J Natl Cancer Inst 50:1013), Jurkat (Gillis, S., and J. Watson. 1980. Biochemical and biological characterization of lymphocyte regulatory molecules. V. Identification of an interleukin 2-producing human leukemia T cell line. J Exp Med 152:1709) and WM9 (Forsberg, K., I. Valyi-Nagy, C. H. Heldin, M. Herlyn, and B. Westermark. 1993. Platelet-derived growth factor (PDGF) in oncogenesis: development of a vascular connective tissue stroma in xenotransplanted human melanoma producing PDGF-BB. Proc Natl Acad Sci USA 90:393) cell lines were obtained from a colleague at the Cleveland Clinic Foundation (CCF) and cultured in RPMI 1640 medium supplemented with 10% fetal calf serum (FCS). Recombinant IL-2 (Proleukin, 22 million IU/1.3 mg, Chiron, Emeryville, Calif.) was purchased from the CCF pharmacy. SSG has been described previously (Yi, T., M. K. Pathak, D. J. Lindner, M. E. Ketterer, C. Farver, and E. C. Borden. 2002. Anticancer activity of sodium stibogluconate in synergy with IFNs. J Immunol 169:5978).
NIH3T3 (Yi, et al., Blood 85, 87 (1995)), WM9 (Forsberg, et al., Proc. Nat. Acad Sci. USA 90, 393 (1993)), DU145 (Mickey, et al., Cancer Res. 37, 4049 (1977)), LoVo (Drewinko, et al., Cancer Res. 36, 467 (1976)), HEY (Buick, et al., Cancer Res. 45, 3668 (1985)), U251 (Yoshida, et al., Cancer 50, 410 (1982)), A549 (Giard, et al., J. Natl. Cancer Inst. 51, 1417 (1973)) and SK-N-SH (Helson, et al., Cancer Res. 35, 2594 (1975)) cell lines have been described and were cultured in RPMI 1640 supplemented with 10% fetal calf serum (FCS). For measurement of sodium stibogluconate effects on cell growth in vitro, cells were cultured in the absence (−) or presence (+) of various amounts of sodium stibogluconate for 6 days with viable cells quantified by MTT assays (Mosmann, J. Immunol. Methods 65, 55 (1983)). Percentages of growth inhibition by sodium stibogluconate were calculated (.+−.x%).

[2] = target: T1, SHP-1 (Mus musculus, UniProt P29351); assay: in vitro PTPase assay, GST/SHP-1; format: biochemical; details: for inhibitory activity against SHP-1: 3-4 μg/ml or 10-100 μg/ml
T1 construct: made in house
Procedure: In vitro PTPase activities were measured using the commercial protein tyrosine phosphatase assay kit (Upstate Biotechnology, Inc. (“UBI”)) following established procedure known to one of skill in the art. […] Briefly, 0.01 μg of GST/PTPase fusion proteins was incubated in 50 μl of Tris buffer (10 mM Tris, pH 7.4) containing different concentrations of inhibitors or chemicals (0-1,000 μg/ml) at 22° C. for 10 minutes, followed by addition of 0.2 mM of the phosphotyrosine peptide and incubation at 22° […] 100 μl of Malachite Green solution was added and incubated for 5 minutes, and the absorbance at 660 nm was measured after 5 minutes.
To assess the reversibility of inhibition of SHP-1 by PTPase inhibitors, GST/SHP-1 fusion protein bound on glutathione beads were pre-incubated in cold Tris buffer or Tris buffer containing the PTPase inhibitors at 4° C. for 30 minutes. The beads were then either subjected to in vitro PTPase assays or washed 3 times in Tris buffer then subjected to in vitro PTPase assays.
Briefly, individual PTPases (0.1 μg/reaction) in 50 μL of PTPase buffer (50 mM Tris, pH 7.4) were incubated at 22° C. for 10 minutes or as indicated in the absence or presence of inhibitory compounds. Substrates (0.2 mM phosphotyrosine peptide) were then added and allowed to react at 22° C. for 18 hrs. PTPase activity of individual reactions was measured by adding 100 μL of malachite green solution (UBI) and then quantifying the amounts of free phosphate cleaved by the PTPase from the peptide substrate by spectrometry (OD660 nm). […] Relative PTPase activities were calculated based on the formula: (PTPase activity in the presence of an inhibitory compound/PTPase activity in the absence of the compound)× 100%. To assess the reversibility of PTPase inhibition, GST fusion proteins of the PTPases bound on glutathione beads (Pharmacia) were pre-incubated with cold Tris buffer (50 mM Tris, pH 7.0) or Tris buffer containing the inhibitor at 4° C. for 30 minutes. The beads were then washed three times in cold Tris buffer or not washed prior to subjecting to in vitro PTPase assays.

T1 sequence (P29351 whole entry): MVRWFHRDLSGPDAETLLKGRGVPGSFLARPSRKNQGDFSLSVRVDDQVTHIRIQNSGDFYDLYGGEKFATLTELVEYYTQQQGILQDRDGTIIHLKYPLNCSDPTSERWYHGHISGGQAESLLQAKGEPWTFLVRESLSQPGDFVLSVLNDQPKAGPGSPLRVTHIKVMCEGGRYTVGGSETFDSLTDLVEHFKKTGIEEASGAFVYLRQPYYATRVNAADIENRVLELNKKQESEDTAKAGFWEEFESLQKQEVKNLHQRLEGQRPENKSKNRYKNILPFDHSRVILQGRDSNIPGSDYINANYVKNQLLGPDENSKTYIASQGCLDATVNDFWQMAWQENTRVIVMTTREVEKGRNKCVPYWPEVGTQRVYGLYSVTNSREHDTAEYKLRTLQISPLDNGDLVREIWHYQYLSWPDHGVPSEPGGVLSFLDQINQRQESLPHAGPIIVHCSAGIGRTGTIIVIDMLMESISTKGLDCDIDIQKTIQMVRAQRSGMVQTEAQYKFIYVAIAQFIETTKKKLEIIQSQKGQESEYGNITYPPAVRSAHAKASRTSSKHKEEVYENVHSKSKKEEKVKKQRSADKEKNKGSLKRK

SMILES	effect on IFN-alpha activity, WM9 ([1]; 40 μg/ml)	activity against WM9 cells ([1]; 0.625-20 μg/ml, single agent or with IFN-alpha)	inhibition at 40 µg/mL ([1]; Homo sapiens, WM9, 144 h, single agent, 40 μg/ml, 6 days) [%]	inhibitory activity against SHP-1 [2]	WM9 cells, single agent ([1]; 50 μg/ml and 100 μg/ml, day 6 culture)	WM9 cell growth in culture ([1]; SSG, 6 days, comparable conditions)	activity of parental mixture against recombinant SHP-1 ([2]; Sb concentration of 10 μg/ml)	inhibition of GST/SHP-1 after washing (reversibility) ([2]; pre-incubated 30 min at 4 °C, beads washed 3 times)	effect on IFN-alpha-induced growth inhibition of WM9 ([1]; most obviously at 0.625-1.25 μg/ml)	growth inhibition of WM9 cells ([1]; single agent, 2.5-5 μg/ml, 6 days)
CC(=O)N1CCN(c2ccc(OCC3COC(Cn4ccnc4)(c4ccc(Cl)cc4Cl)O3)cc2)CC1 (centres unmarked) [ketoconazole]	minor augmenting effect	no apparent activity	67	no obvious inhibitory activity						
O.O.O.O.O.O.O.O.O.O=C([O-])[C@@H]1[O][Sb]2([O-])([O][Sb]34([OH])[O][C@H]([C@H](O)CO)[C@H]([O]3)[C@H](C(=O)[O-])[O]4)[O][C@H]([C@H](O)CO)[C@@H]1[O]2.[Na+].[Na+].[Na+] [sodium stibogluconate]					killed all cells	inhibited by SSG in a dose-dependent manner	inactivated SHP-1	not affected by washing		
N=C(N)c1ccc(OCCCCCOc2ccc(C(=N)N)cc2)cc1 [pentamidine]				no obvious inhibitory activity					augmented IFN-alpha-induced growth inhibition	86-97%
